# In US4327085A, “Biologically active compositions and methods of use” (Agence National de Valorisation de la Recherache (ANVAR), priority 1973, dated 1982):
# What was measured:
# [1] = system: Klebsiella pneumoniae, strain of capsular type 2, biotype d; assay: Anti-infectious protection of mice against Klebsiella pneumoniae infection; assay type: in vivo, hybrid mice (C57B1/6×AKR)F1; details: compound iv. 100 μg at -24 h; for % protection: difference of % survivors vs controls
# [2] = system: bovine serum albumin (BSA) antigen; assay: Adjuvant activity in aqueous phase: anti-albumin antibody rate by passive hemagglutination; assay type: in vivo, Swiss mice; details: S.C., 100 μg with BSA 0.5 mg/animal in isotonic saline
# Procedure: In the series of tests of which the results are indicated hereafter, the influence of the active principle according to the invention was assessed as bearing on the anti-albumin antibody rate, particularly under the following conditions.
# Groups of 8 two-month-old Swiss mice received by subcutaneous injection (SC) or orally (PO) 0.5 mg of antigen constituted by the bovine serum albumin (BSA) with or without the substance tested in an isotonic saline solution. This large dose of antigen, because of its closeness to the limit paralysing dose with respect to the immunising response, elicits but a weak or no immune response in the controls; it therefore constitutes a severe criterion for showing the activity of an adjuvant substance. Thirty days later, the mice received, by the same method of administration, a further dose containing 0.1 mg of the same antigen.
# The proportion of antibody was determined by passive hemagglutination by using sheep red blood cells treated with formalin and coated with the antigen studied according to the method described by A. A. HIRATA and M. W. […] (J. Immunol., 100, 641-648, 1968). Blood samples were taken 14, 28, 34 and 36 days after the first injection.
SMILES,% survival D + 3 ([1]; K. pneumoniae im. 2 × 10^4) [%],% survival D + 5 ([1]; K. pneumoniae im. 2 × 10^4) [%],% survival D + 10 ([1]; K. pneumoniae im. 2 × 10^4) [%],% protection ([1]; K. pneumoniae im. 2 × 10^4) [%],"% survival D + 3 ([1]; K. pneumoniae im. 1,5 × 10^4) [%]","% survival D + 5 ([1]; K. pneumoniae im. 1,5 × 10^4) [%]","% survival D + 10 ([1]; K. pneumoniae im. 1,5 × 10^4) [%]","% protection ([1]; K. pneumoniae im. 1,5 × 10^4) [%]",Titer of antibody 28th day [2]
"CC(=O)N[C@H]1C(O)O[C@H](COC(C)=O)[C@@H](OC(C)=O)[C@@H]1O[C@H](C)C(=O)N[C@@H](C)C(=O)N[C@H](CCC(=O)O)C(N)=O (stereo partly drawn) [4,6-di-O-acetyl--Mur--NAc--L--Ala--D--Glu(OH)--NH2]",97,84,63,47,,,,,
"CC(=O)N[C@H]1C(O)O[C@H](COC(=O)CCC(=O)O)[C@@H](O)[C@@H]1O[C@H](C)C(=O)N[C@@H](C)C(=O)N[C@H](CCC(=O)O)C(N)=O (stereo partly drawn) [6-O-succinyl-Mur-NAc--L--Ala--D--Glu,(OH)--NH2]",100,91,63,44,,,,,
"CC(=O)N[C@H]1C(O)O[C@H](CO)[C@@H](O)[C@@H]1OCC(=O)N[C@@H](C)C(=O)N[C@H](CCC(=O)O)C(N)=O (stereo partly drawn) [norMur--NAc--L-Ala--D-Glu(OH)--NH2, 2(2-acetamido-2-deoxy-3-O-D-glucopyranosyl)-acetyl-L-alanyl-D-isoglutamine]",,,,,78,64,60,47,25
"CC(=O)N[C@@H]1[C@@H](O[C@H](C)C(=O)N[C@@H](C)C(=O)N[C@H](CCC(=O)O)C(N)=O)[C@H](O)[C@@H](CO)O[C@H]1O [Mur--NAc--L-Ala--D-Glu(OH)--NH2, Mur--NAc--L--Ala--D--Glu(OH)--NH2, reference compound]",,,,,83,66,60,47,25
